Among the test systems are MDA-N; NCI-H23; HCT-116; CAKI-1; OVCAR-8; SW-620; IGROV-1; SNB-75; CCRF-CEM; MCF7; PC-3; ACHN; SK-MEL-5; SNB-19; SK-MEL-28; 786-0; DU-145; RXF 393; OVCAR-3; K562.
Common to all, as to test: growth of human tumour cells (NCI), 48 h

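1) Cells in 96-well plates. 2) Compound, 48 h, 5 concentrations. 3) Linear interpolation between surrounding doses. 4) Unreached endpoint = highest concentration. Here, GI50 denotes the concentration required for 50% inhibition of growth.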 Active and inactive are the calls of the source. Rule as the data show it: active = GI50 up to about 1.1 µM and inactive = higher.

With `CCOC(=O)CCC(NC(=O)c1ccc(OCc2ccc3nc(-c4ccccc4)c(Cl)nc3c2)cc1)C(=O)OCC` (stereo not given), the GI50 is > 100 µM (inactive) in the assay on MDA-N; 17.2 µM (inactive) with NCI-H23; > 31.6 µM (inactive) in the assay on HCT-116; > 69 µM (inactive) with CAKI-1; 14.2 µM (inactive) with OVCAR-8; > 31.6 µM (inactive) in the assay with SW-620. For the same compound, the GI50 was 22.1 µM (inactive) in the assay on IGROV-1; 16.8 µM (inactive) in the assay on SNB-75; > 31.6 µM (inactive) in the assay on CCRF-CEM; 27.4 µM (inactive) with MCF7; 7.4 µM (inactive) with PC-3; 26.9 µM (inactive) with ACHN. Moreover, the GI50 is > 31.6 µM (inactive) in the assay on SK-MEL-5; 17.3 µM (inactive) in the assay with SNB-19; > 31.6 µM (inactive) in the assay on SK-MEL-28; 16.6 µM (inactive) with 786-0; > 31.6 µM (inactive) in the assay with DU-145; 2.08 µM (inactive) in the assay on RXF 393. The results for the GI50 in the assay with OVCAR-3 and in the assay with K562 were > 31.6 µM (inactive) and 3.88 µM (inactive), respectively.
For the compound `CCc1nc(N)nc(N)c1-c1ccc(Cl)c(/N=C/N(C)C)c1`, the GI50 in the assay on MDA-N was 45.9 µM (inactive); with NCI-H23 it was 28.6 µM (inactive); with HCT-116 it was 10.3 µM (inactive); in the assay on CAKI-1, 53.8 µM (inactive); in the assay with OVCAR-8, 44.4 µM (inactive); with SW-620, 22.3 µM (inactive). In addition, the GI50 in the assay on IGROV-1 is 27.1 µM (inactive); in the assay with SNB-75, > 96.4 µM (inactive); in the assay on CCRF-CEM, 30.3 µM (inactive); in the assay with MCF7 it was 57.8 µM (inactive); in the assay on PC-3, 25.9 µM (inactive); with ACHN, 38.8 µM (inactive). The GI50 with SK-MEL-5 was 29.9 µM (inactive); in the assay on SNB-19, 58.9 µM (inactive); in the assay with SK-MEL-28, > 100 µM (inactive); in the assay with 786-0, 22.8 µM (inactive); in the assay on DU-145, 81.1 µM (inactive); in the assay with RXF 393 it was > 89.3 µM (inactive). Also, the GI50 with OVCAR-3 is 65.6 µM (inactive); in the assay with K562, 6.03 µM (inactive).
Consider `COC1OC(Cn2c(C)nc(Br)c2Br)C(O)C(O)C1O` (stereo not given), for which the GI50 in the assay with MDA-N, with NCI-H23, in the assay with HCT-116, with CAKI-1, with OVCAR-8 and in the assay on SW-620 was > 100 µM (inactive) each time. Further, the GI50 in the assay with IGROV-1, in the assay on SNB-75, in the assay with CCRF-CEM, in the assay on MCF7, with PC-3 and in the assay on ACHN was > 100 µM (inactive) each time. Further, the GI50 in the assay on SK-MEL-5, with SNB-19, with SK-MEL-28, in the assay with 786-0, in the assay on DU-145 and in the assay on RXF 393 was > 100 µM (inactive) each time. The GI50 in the assay on OVCAR-3 and with K562 was > 100 µM (inactive) each time.
For the compound `COc1c(Cl)ccc(Cl)c1C(=O)NNC(=O)c1c(Cl)c(Cl)c(Cl)c(Cl)c1-c1nc2cc(C(=O)c3ccccc3)ccc2[nH]1`, the GI50 in the assay with MDA-N is 33.3 µM (inactive); in the assay with NCI-H23, 64.1 µM (inactive); in the assay on HCT-116, 66.7 µM (inactive); in the assay on CAKI-1 it was 95.3 µM (inactive); in the assay on OVCAR-8, 72.9 µM (inactive); in the assay on SW-620, > 100 µM (inactive). The GI50 was 31 µM (inactive) with IGROV-1; > 100 µM (inactive) in the assay with SNB-75; 28.8 µM (inactive) in the assay with CCRF-CEM; 44.4 µM (inactive) in the assay on MCF7; 37.8 µM (inactive) in the assay with PC-3; 37.5 µM (inactive) in the assay with ACHN. In addition, the GI50 with SK-MEL-5 was 25.2 µM (inactive); with SNB-19 it was > 100 µM (inactive); with SK-MEL-28 it was 84.7 µM (inactive); in the assay on 786-0 it was 72.4 µM (inactive); with DU-145, > 100 µM (inactive); in the assay on RXF 393, 19.5 µM (inactive). For the same compound, the results for the GI50 in the assay on OVCAR-3 and in the assay with K562 were 30.5 µM (inactive) and 26.7 µM (inactive), respectively.
Regarding `CCCOC(=O)c1cc(O)c(O)c(O)c1` [PROPYL GALLATE], the GI50 in the assay with MDA-N was 14.7 µM (inactive); in the assay on NCI-H23, > 100 µM (inactive); with HCT-116 it was 20.8 µM (inactive); with CAKI-1 it was > 100 µM (inactive); in the assay on OVCAR-8, 27.9 µM (inactive); with SW-620 it was 51.3 µM (inactive). For the same compound, the GI50 with IGROV-1 is 31.3 µM (inactive); in the assay on SNB-75, 40.3 µM (inactive); in the assay on CCRF-CEM, > 100 µM (inactive); in the assay with MCF7, 42 µM (inactive); in the assay on PC-3, 18.7 µM (inactive); in the assay on ACHN it was 46.2 µM (inactive). In addition, the GI50 is 59.3 µM (inactive) in the assay on SK-MEL-5; 57.4 µM (inactive) in the assay on SNB-19; 43.8 µM (inactive) in the assay on SK-MEL-28; 41.4 µM (inactive) in the assay on 786-0; 30.3 µM (inactive) in the assay with DU-145; 19.3 µM (inactive) in the assay on RXF 393. The results for the GI50 with OVCAR-3 and with K562 were 25.7 µM (inactive) and > 100 µM (inactive), respectively.
Turning to `CCCCCCCCCC(=O)N[C@@H](c1ccco1)[C@@H](O)C(=O)O[C@H]1C[C@@]2(O)[C@@H](OC(=O)c3ccccc3)[C@@H]3[C@]4(OC(C)=O)CO[C@@H]4C[C@H](O)[C@@]3(C)C(=O)[C@H](OC(C)=O)C(=C1C)C2(C)C`, the GI50 in the assay with MDA-N is < 0.005 µM (active); with NCI-H23, 0.0385 µM (active); in the assay on HCT-116 it was 0.00539 µM (active); in the assay with CAKI-1, 2.85 µM (inactive); with OVCAR-8 it was 0.0298 µM (active); with SW-620, 0.0243 µM (active). The GI50 in the assay on IGROV-1 is 0.0324 µM (active); with SNB-75, 0.989 µM (active); in the assay on CCRF-CEM, 0.0178 µM (active); with MCF7, 0.00695 µM (active); in the assay on PC-3, 0.64 µM (active); in the assay on ACHN, 2.92 µM (inactive). Besides, the GI50 is 0.0154 µM (active) in the assay with SK-MEL-5; 0.0442 µM (active) in the assay with SNB-19; 0.0498 µM (active) in the assay on SK-MEL-28; 0.0282 µM (active) with 786-0; 0.106 µM (active) in the assay with DU-145; 0.043 µM (active) in the assay with RXF 393. Moreover, the GI50 is 0.00914 µM (active) with OVCAR-3 and 0.0187 µM (active) in the assay on K562.
Turning to `N#C/C(=C1C=C(Br)/C(=N\O)C=C\1Cl)c1cccc2ccccc12`, the GI50 in the assay with MDA-N is 1.61 µM (inactive); with NCI-H23, 13.2 µM (inactive); in the assay with HCT-116 it was 4 µM (inactive); in the assay on CAKI-1 it was 3.48 µM (inactive); in the assay with OVCAR-8 it was 6.37 µM (inactive); with SW-620, 3.53 µM (inactive). For the same compound, the GI50 in the assay with IGROV-1 is 6.24 µM (inactive); with SNB-75, 0.121 µM (active); in the assay on CCRF-CEM, 2.62 µM (inactive); with MCF7, 4.93 µM (inactive); in the assay on PC-3 it was 2.89 µM (inactive); in the assay on ACHN it was 11 µM (inactive). The GI50 in the assay on SK-MEL-5 was 3.42 µM (inactive); in the assay on SNB-19 it was 10.5 µM (inactive); in the assay with SK-MEL-28, 6.3 µM (inactive); in the assay with 786-0 it was 3.34 µM (inactive); in the assay on DU-145 it was 3.31 µM (inactive); in the assay on RXF 393, 1.37 µM (inactive). Moreover, the GI50 is 2.76 µM (inactive) in the assay with OVCAR-3 and 3.51 µM (inactive) with K562.
Regarding `COc1ccc(/C=C/c2cc(=O)cc(/C=C/c3ccc(OC)c(O)c3)o2)cc1O`, the GI50 was 1.44 µM (inactive) with MDA-N; 2.43 µM (inactive) in the assay with NCI-H23; 2.43 µM (inactive) with HCT-116; 3.55 µM (inactive) in the assay with CAKI-1; 2.91 µM (inactive) in the assay on OVCAR-8; 2.71 µM (inactive) with SW-620. Also, the GI50 is 3.22 µM (inactive) in the assay on IGROV-1; 3.82 µM (inactive) in the assay with SNB-75; 2.82 µM (inactive) in the assay on CCRF-CEM; 2.14 µM (inactive) in the assay on MCF7; 3.26 µM (inactive) in the assay on PC-3; 2.48 µM (inactive) in the assay on ACHN. For the same compound, the GI50 was 1.88 µM (inactive) in the assay on SK-MEL-5; 4.84 µM (inactive) in the assay with SNB-19; 3.56 µM (inactive) with SK-MEL-28; 3.06 µM (inactive) in the assay with 786-0; 2.92 µM (inactive) with DU-145; 1.11 µM (active) with RXF 393. In addition, the GI50 is 2.52 µM (inactive) with OVCAR-3 and 2.42 µM (inactive) in the assay on K562.
For the compound `c1csc(-c2ccc(-c3cccs3)c3nsnc23)c1`, the GI50 with MDA-N is 17.9 µM (inactive); with NCI-H23, 22 µM (inactive); with HCT-116 it was 19.8 µM (inactive); in the assay with CAKI-1, > 59.8 µM (inactive); in the assay on OVCAR-8 it was 19.7 µM (inactive); with SW-620, 17.1 µM (inactive). The GI50 in the assay with IGROV-1 is 0.875 µM (active); in the assay with SNB-75, 19.7 µM (inactive); with CCRF-CEM it was 8.32 µM (inactive); in the assay on MCF7, 0.11 µM (active); with PC-3 it was > 54 µM (inactive); in the assay on ACHN, > 65.2 µM (inactive). For the same compound, the GI50 in the assay with SK-MEL-5 was > 33.6 µM (inactive); in the assay with SNB-19, > 90.8 µM (inactive); in the assay with SK-MEL-28, 20.2 µM (inactive); with 786-0 it was 22.8 µM (inactive); with DU-145 it was 33.8 µM (inactive); in the assay with RXF 393 it was > 22 µM (inactive). Moreover, the GI50 in the assay with OVCAR-3 was 2.04 µM (inactive); in the assay on K562, 9.68 µM (inactive).
As to `c1ccc2c(c1)[n-]n1c3ccc4nonc4c3n[n+]21`, the GI50 in the assay with MDA-N, in the assay on NCI-H23, in the assay with HCT-116, in the assay on CAKI-1, in the assay with OVCAR-8 and in the assay on SW-620 was > 100 µM (inactive) in each case. Moreover, the GI50 was > 100 µM (inactive) with IGROV-1; 56.1 µM (inactive) in the assay with SNB-75; > 100 µM (inactive) in the assay on CCRF-CEM; 60.5 µM (inactive) in the assay with MCF7; > 100 µM (inactive) in the assay with PC-3; > 100 µM (inactive) in the assay on ACHN. The GI50 in the assay on SK-MEL-5, in the assay on SNB-19, in the assay on SK-MEL-28, in the assay on 786-0, in the assay with DU-145 and in the assay with RXF 393 was > 100 µM (inactive) throughout. In addition, the GI50 in the assay with OVCAR-3 and in the assay with K562 was > 100 µM (inactive) throughout.
